Experimental data published in PubChem BioAssay (NCI).
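Cells were grown in 96-well plates and exposed to each compound for 48 hours at five concentrations; endpoints were interpolated linearly between bracketing concentrations, or set to the highest concentration if not reached. TGI marks complete inhibition of growth.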

How the values were obtained:
Test in all cases: NCI anticancer screen, dose series, 48 h
SF-539 CNS = system: SF-539 CNS
EKVX NSCLC = system: EKVX NSCLC
MALME-3M melanoma = system: MALME-3M melanoma
SF-295 CNS = system: SF-295 CNS
NCI-H460 lung = system: NCI-H460 lung
OVCAR-3 ovarian = system: OVCAR-3 ovarian
CAKI-1 renal = system: CAKI-1 renal
M14 melanoma = system: M14 melanoma
NCI-H226 lung = system: NCI-H226 lung
OVCAR-8 ovarian = system: OVCAR-8 ovarian
HS 578T breast = system: HS 578T breast
SK-MEL-2 melanoma = system: SK-MEL-2 melanoma
MCF7 breast = system: MCF7 breast
UO-31 renal = system: UO-31 renal
HT29 colon = system: HT29 colon
KM12 colon = system: KM12 colon
TK-10 renal = system: TK-10 renal
K-562 leukemia = system: K-562 leukemia
ACHN renal = system: ACHN renal
UACC-62 melanoma = system: UACC-62 melanoma
DU-145 prostate = system: DU-145 prostate
HL-60(TB) leukemia = system: HL-60(TB) leukemia
SN12C renal = system: SN12C renal
IGROV1 ovarian = system: IGROV1 ovarian
CCRF-CEM leukemia = system: CCRF-CEM leukemia
T-47D breast = system: T-47D breast
RXF 393 renal = system: RXF 393 renal
A498 renal = system: A498 renal
SW-620 colon = system: SW-620 colon
HCC-2998 colon = system: HCC-2998 colon
SK-MEL-28 melanoma = system: SK-MEL-28 melanoma
LOX IMVI melanoma = system: LOX IMVI melanoma
SK-OV-3 ovarian = system: SK-OV-3 ovarian
SF-268 CNS = system: SF-268 CNS
HCT-15 colon = system: HCT-15 colon
OVCAR-4 ovarian = system: OVCAR-4 ovarian
UACC-257 melanoma = system: UACC-257 melanoma
NCI-H23 lung = system: NCI-H23 lung
HOP-62 NSCLC = system: HOP-62 NSCLC
HOP-92 NSCLC = system: HOP-92 NSCLC
COLO 205 colon = system: COLO 205 colon
BT-549 breast = system: BT-549 breast
MOLT-4 leukemia = system: MOLT-4 leukemia
MDA-MB-231 breast = system: MDA-MB-231 breast
PC-3 prostate = system: PC-3 prostate
SK-MEL-5 melanoma = system: SK-MEL-5 melanoma
MDA-N = system: MDA-N
NCI/ADR-RES ovarian = system: NCI/ADR-RES ovarian
OVCAR-5 ovarian = system: OVCAR-5 ovarian
SNB-19 CNS = system: SNB-19 CNS
HCT-116 colon = system: HCT-116 colon
NCI-H522 lung = system: NCI-H522 lung
MDA-MB-435 = system: MDA-MB-435
U251 CNS = system: U251 CNS
786-0 renal = system: 786-0 renal
A549 NSCLC = system: A549 NSCLC
SNB-75 CNS = system: SNB-75 CNS
SR leukemia = system: SR leukemia
RPMI-8226 leukemia = system: RPMI-8226 leukemia

Compound `O=C(C1OC1c1ccc([N+](=O)[O-])cc1)C12CC3CC(CC(C3)C1)C2` (stereo not given) has a TGI (SF-539 CNS) of 28.9 µM, a TGI (EKVX NSCLC) of 37.4 µM and a TGI (MALME-3M melanoma) of 32.4 µM. It also gave a TGI (SF-295 CNS) of 30.8 µM, a TGI (NCI-H460 lung) of 28.5 µM and a TGI (OVCAR-3 ovarian) of 27 µM. It also gave a TGI (CAKI-1 renal) of 36 µM, a TGI (M14 melanoma) of 30.1 µM and a TGI (NCI-H226 lung) of 39.4 µM. For the same compound, the TGI (OVCAR-8 ovarian) was 38.2 µM, the TGI (HS 578T breast) was 50.3 µM and the TGI (SK-MEL-2 melanoma) was 39.1 µM. It also gave a TGI (MCF7 breast) of 33.1 µM, a TGI (UO-31 renal) of 32.4 µM and a TGI (HT29 colon) of 47.7 µM. For the same compound, the TGI (KM12 colon) was 30.1 µM, the TGI (TK-10 renal) was 33.3 µM and the TGI (K-562 leukemia) was 33.5 µM. The TGI (ACHN renal) was 34 µM, the TGI (UACC-62 melanoma) was 28.9 µM and the TGI (DU-145 prostate) was 46.2 µM. The TGI (HL-60(TB) leukemia) was 16.1 µM, the TGI (SN12C renal) was 29.7 µM and the TGI (IGROV1 ovarian) was 34.6 µM. It also gave a TGI (CCRF-CEM leukemia) of 7.66 µM, a TGI (T-47D breast) of 37.3 µM and a TGI (RXF 393 renal) of 46.4 µM. It also gave a TGI (A498 renal) of 35.7 µM, a TGI (SW-620 colon) of 56 µM and a TGI (HCC-2998 colon) of 44.4 µM. For the same compound, the TGI (SK-MEL-28 melanoma) was 33.4 µM, the TGI (LOX IMVI melanoma) was 4.19 µM and the TGI (SK-OV-3 ovarian) was 49.6 µM. The TGI (SF-268 CNS) was 40.8 µM, the TGI (HCT-15 colon) was 31.5 µM and the TGI (OVCAR-4 ovarian) was 38.9 µM. It also gave a TGI (UACC-257 melanoma) of 30.9 µM, a TGI (NCI-H23 lung) of 27.2 µM and a TGI (HOP-62 NSCLC) of 56.3 µM. The TGI (HOP-92 NSCLC) was 40.3 µM, the TGI (COLO 205 colon) was 35.4 µM and the TGI (BT-549 breast) was 40.2 µM. It also gave a TGI (MOLT-4 leukemia) of 49.3 µM, a TGI (MDA-MB-231 breast) of 34.8 µM and a TGI (PC-3 prostate) of 28.1 µM. It also gave a TGI (SK-MEL-5 melanoma) of 29.1 µM, a TGI (MDA-N) of 24.3 µM and a TGI (NCI/ADR-RES ovarian) of 39.2 µM. For the same compound, the TGI (OVCAR-5 ovarian) was 39.9 µM, the TGI (SNB-19 CNS) was 32 µM and the TGI (HCT-116 colon) was 22 µM. It also gave a TGI (NCI-H522 lung) of 54 µM, a TGI (MDA-MB-435) of 28.4 µM and a TGI (U251 CNS) of 24.6 µM. It also gave a TGI (786-0 renal) of 22.1 µM, a TGI (A549 NSCLC) of 52.7 µM and a TGI (SNB-75 CNS) of 39.4 µM.
With `C#CCOC(=O)c1ccccc1OC(C)=O` the TGI (SF-539 CNS) was > 100 µM, the TGI (EKVX NSCLC) was > 100 µM and the TGI (SF-295 CNS) was > 100 µM. For the same compound, the TGI (NCI-H460 lung) was > 100 µM, the TGI (CAKI-1 renal) was > 100 µM and the TGI (M14 melanoma) was > 100 µM. For the same compound, the TGI (NCI-H226 lung) was > 100 µM, the TGI (OVCAR-8 ovarian) was > 100 µM and the TGI (HS 578T breast) was > 100 µM. The TGI (SK-MEL-2 melanoma) was > 100 µM, the TGI (MCF7 breast) was > 100 µM and the TGI (UO-31 renal) was > 100 µM. For the same compound, the TGI (KM12 colon) was > 100 µM, the TGI (TK-10 renal) was > 100 µM and the TGI (K-562 leukemia) was > 100 µM. For the same compound, the TGI (ACHN renal) was > 100 µM, the TGI (UACC-62 melanoma) was > 100 µM and the TGI (DU-145 prostate) was > 100 µM. For the same compound, the TGI (HL-60(TB) leukemia) was > 100 µM, the TGI (SR leukemia) was > 100 µM and the TGI (SN12C renal) was > 100 µM. For the same compound, the TGI (IGROV1 ovarian) was > 100 µM, the TGI (CCRF-CEM leukemia) was > 100 µM and the TGI (T-47D breast) was > 100 µM. The TGI (RXF 393 renal) was > 100 µM, the TGI (A498 renal) was > 100 µM and the TGI (SW-620 colon) was > 100 µM. For the same compound, the TGI (LOX IMVI melanoma) was > 100 µM, the TGI (SK-OV-3 ovarian) was > 100 µM and the TGI (SF-268 CNS) was > 100 µM. The TGI (HCT-15 colon) was > 100 µM, the TGI (OVCAR-4 ovarian) was > 100 µM and the TGI (UACC-257 melanoma) was > 100 µM. For the same compound, the TGI (NCI-H23 lung) was > 100 µM, the TGI (HOP-62 NSCLC) was > 100 µM and the TGI (HOP-92 NSCLC) was > 100 µM. For the same compound, the TGI (COLO 205 colon) was > 100 µM, the TGI (BT-549 breast) was > 100 µM and the TGI (MOLT-4 leukemia) was > 100 µM. For the same compound, the TGI (MDA-MB-231 breast) was > 100 µM, the TGI (PC-3 prostate) was > 100 µM and the TGI (SK-MEL-5 melanoma) was > 100 µM. For the same compound, the TGI (MDA-N) was > 100 µM, the TGI (RPMI-8226 leukemia) was > 100 µM and the TGI (NCI/ADR-RES ovarian) was > 100 µM. For the same compound, the TGI (OVCAR-5 ovarian) was > 100 µM, the TGI (SNB-19 CNS) was > 100 µM and the TGI (HCT-116 colon) was > 100 µM. For the same compound, the TGI (NCI-H522 lung) was > 100 µM, the TGI (MDA-MB-435) was > 100 µM and the TGI (U251 CNS) was > 100 µM. The TGI (786-0 renal) was > 100 µM and the TGI (SNB-75 CNS) was > 100 µM.
